Data taken from publication PMC8209673 (Cell reports, 2021).
Where two headings read alike, the source gives them in different places.

What was measured:
[1] = tested on: SOD1(A4V) ALS motor neurons; assay type: cell-based, human
SOD1(A4V) motor neurons [2] = experiment: Multiple electrode array; assay type: cell-based, human; conditions: for SOD1(A4V) motor neuron excitability: DRD2/3 agonists, MEA (Figure 4C)
[3] = tested on: differentiated human ALS motor neurons; experiment: Fura-2 calcium response imaging; assay type: cell-based; conditions: fura-2 imaging
patients with ALS = conditions: small-scale clinical trial; ref Nagata et al., 2016; cited from earlier work
[4] = tested on: human motor neurons carrying SOD1, C9ORF72, and FUS mutations; conditions: ref Wainger et al., 2014; cited from earlier work
[5] = tested on: lower motor neuron hyperexcitability; conditions: two clinical trials; ref Kovalchuk et al., 2018; Wainger et al., 2021; cited from earlier work
SOD1(A4V) motor neurons [6] = experiment: Patch clamp current-clamp recording of spontaneous firing; assay type: cell-based, human
DRD2 = conditions: ref McCall et al., 2005; cited from earlier work
DRD3 = conditions: cited from earlier work
[7] = calcium wave count normalized to the DMSO control (100.00)
[8] = activity normalized to the DMSO control (100.00)

Structure (SMILES): CCn1c(=O)[nH]c2ccccc21 [1-Ebio (SB-423901)]
- GCaMP6 (%) spontaneous motor neuron activity [1, 7]: 103.33 ± 21.7%
- MEA (%) spontaneous motor neuron activity (SOD1(A4V) motor neurons [2]): 122.81 ± 27.8%

Structure (SMILES): Cc1o[nH]c(=O)c1C[C@H](N)C(=O)O [AMPA]
- calcium influx [3]: elicits a large calcium influx

Structure (SMILES): Cc1cc(NC2CCCCC2)nc(-n2nc(C)cc2C)n1 [CyPPA (NS6277)]
- GCaMP6 (%) spontaneous motor neuron activity [1, 7]: 80.00 ± 27.4%
- MEA (%) spontaneous motor neuron activity (SOD1(A4V) motor neurons [2]): 12.72 ± 5.8%

Structure (SMILES): O=C(Nc1cnc(Cl)nc1)c1ccc(F)c(F)c1 [ICA 069673]
- GCaMP6 (%) spontaneous motor neuron activity [1, 7]: 13.33 ± 13.9%
- MEA (%) spontaneous motor neuron activity (SOD1(A4V) motor neurons [2]): 0.07 ± 0.0%

Structure (SMILES): O=C(Nc1ccc(Cl)nc1)c1ccc(F)c(F)c1 [ICA-27243]
- GCaMP6 (%) spontaneous motor neuron activity [1, 7]: 0.00 ± 0.0%
- MEA (%) spontaneous motor neuron activity (SOD1(A4V) motor neurons [2]; [8]): 0.20 ± 0.1%

Structure (SMILES): CN(C)C(=O)C(CCN1CCC(O)(c2ccc(Cl)cc2)CC1)(c1ccccc1)c1ccccc1 [Loperamide]
- GCaMP6 (%) spontaneous motor neuron activity [1]: 0.00± 0.0%
- MEA (%) spontaneous motor neuron activity (SOD1(A4V) motor neurons [2]): 0.02 ± 0.0%

Structure (SMILES): Cc1cc(C)c(NC(=O)C2CC3CCC2C3)c(C)c1 (stereo not shown) [ML213]
- GCaMP6 (%) spontaneous motor neuron activity [1, 7]: 0.00 ± 0.0%
- MEA (%) spontaneous motor neuron activity (SOD1(A4V) motor neurons [2]): 0.38 ± 0.4%

Structure (SMILES): COc1ccc(Cl)cc1[C@]1(F)C(=O)Nc2cc(C(F)(F)F)ccc21 [Maxipost (BMS-204352)]
- GCaMP6 (%) spontaneous motor neuron activity [1, 7]: 36.67 ± 39.8%
- MEA (%) spontaneous motor neuron activity (SOD1(A4V) motor neurons [2]): 22.32 ± 1.1%

Structure (SMILES): COCC(=O)O[C@]1(CCN(C)CCCc2nc3ccccc3[nH]2)CCc2cc(F)ccc2[C@@H]1C(C)C [Mibefradil]
- GCaMP6 (%) spontaneous motor neuron activity [1, 7]: 0.00 ± 0.0%
- MEA (%) spontaneous motor neuron activity (SOD1(A4V) motor neurons [2]): 0.02± 0.0%

Structure (SMILES): O=C1Nc2c(ccc(Cl)c2Cl)C1=NO [NS309]
- GCaMP6 (%) spontaneous motor neuron activity [1, 7]: 110.00 ± 38.4%
- MEA (%) spontaneous motor neuron activity (SOD1(A4V) motor neurons [2]): 86.56 ± 14.4%

Structure (SMILES): O=C1NC(=O)C(c2ccccc2)(c2ccccc2)N1 [Phenytoin]
- GCaMP6 (%) spontaneous motor neuron activity [1, 7]: 116.67 ± 56.5%
- MEA (%) spontaneous motor neuron activity (SOD1(A4V) motor neurons [2]; [8]): 103.78 ± 41.1%

Structure (SMILES): Nc1nc2c(ccc3ccccc32)s1 [SKA 31]
- GCaMP6 (%) spontaneous motor neuron activity [1, 7]: 123.33 ± 60.8%
- MEA (%) spontaneous motor neuron activity (SOD1(A4V) motor neurons [2]): 106.67 ± 44.4%

Structure (SMILES): CC(C)C[C@H]1C(=O)N2CCC[C@H]2[C@]2(O)O[C@](NC(=O)[C@@H]3C=C4c5cccc6[nH]c(Br)c(c56)C[C@H]4N(C)C3)(C(C)C)C(=O)N12 [bromocriptine]
- SOD1(A4V) motor neuron excitability (SOD1(A4V) motor neurons [2]): decreased SOD1(A4V) motor neuron excitability
- motor function in patients with ALS (patients with ALS): sustained motor function

Structure (SMILES): CCOC(=O)Nc1ccc(NCc2ccc(F)cc2)nc1N [flupirtine]
- firing of human motor neurons [4]: block firing

Structure (SMILES): CCOC(=O)Nc1ccc(NCc2ccc(F)cc2)cc1N [retigabine]
- firing of human motor neurons [4]: block firing
- lower motor neuron hyperexcitability in patients with ALS [5]: decreased lower motor neuron hyperexcitability

Structure (SMILES): CN[C@@H]1Cc2cccc3[nH]c(=O)n(c23)C1 [sumanirole]
- SOD1(A4V) motor neuron excitability (SOD1(A4V) motor neurons [2]): decreased SOD1(A4V) motor neuron excitability
- membrane potential change (SOD1(A4V) motor neurons [6]; patch clamp, accompanying the decrease in firing): slight hyperpolarization
- firing frequency (SOD1(A4V) motor neurons [6]; patch clamp, sumanirole 10 μM perfusion, control neurons): decrease in firing frequency
- reduced excitability in DRD2 knockdown motor neurons (SOD1(A4V) motor neurons [6]; shRNA-mediated DRD2 knockdown, sumanirole 10 μM): insensitive
- Ki (DRD2): 2 nM
- Ki (DRD3): 1940 nM
